Assays:
rats = experiment: Reversal of the effect of the mGluR2 PAM JNJ-42153605-induced inhibition of scopolamine-induced hyperlocomotion (SCOP JNJ-42153605); type: in vivo, rat; conditions: PO (oral route), rats, reversal criterion total distance >1500 cm; for ED50: Rattus norvegicus
Description: 2) Reversal of the Effect of the mGluR2 PAM JNJ-42153605-Induced Inhibition of Scopolamine-Induced Hyperlocomotion Apparatus
Motor activity was measured in microprocessor-based motor activity arenas (closed gray PVC cylinders with a height of 39 cm and a diameter of 31 cm). Each arena was placed on an infrared LED (8×8 LEDs) lit box (white PVC squared box; 40×40 cm^2; height 12.5 cm. An infrared-sensitive tube camera and a white light source were mounted to the ceiling above the observation chamber to track the animal. The total distance traveled (cm) was recorded and analyzed using the Noldus Ethovision XT Video Tracking System (Version 7.0.418; Noldus, Wageningen, The Netherlands). The intensity of the light within the activity cages (measured in the centre at the level of the floor) ranged between 4 and 8 LUX.
The rats were pretreated with test compound or vehicle at 60 min before the start of the activity recordings and placed into individual cages. The rats were challenged with JNJ-42153605 (3-(cyclopropylmethyl)-7-(4-phenylpiperidin-1-yl)-8-(trifluoromethyl)[1,2,4]triazolo[4,3-a]pyridine; WO2010/130424; Cid et al. J. Med. Chem. 2012, 55, 8770-8789) (20 mg/kg, i.v.) 30 min before the start of the activity recording combined with scopolamine (0.16 mg/kg, i.v.) just before the start of the activity measurements. Immediately after the injection of scopolamine, the rats were placed into the activity monitors and total distance travelled over the first 30 min was measured.
Solvent-Pretreated Control Rats.
Animals receiving the combination of JNJ-42153605 and scopolamine (n=433) almost always travelled a distance of less than 1500 cm (<1500 cm) (only 2.5% of the control rats travelled a distance of more than 1500 cm (>1500 cm)). On the other hand, animals challenged with scopolamine alone (n=215) always travelled a total distance of more than 1500 cm (>1500 cm) and almost always (in 95.8% of the rats) a distance of more than 4400 cm (>4400 cm). […] For reversal of the inhibitory effect of JNJ-42153605 on the scopolamine-induced hyperlocomotion, the following all-or-none criteria were adopted: (1) reversal: total distance >1500 cm.

human mGlu2 receptor = target: T1, human mGlu2 receptor (Homo sapiens, UniProt Q14416); experiment: [35S]GTPγS binding assay (mGluR2 negative allosteric modulation, glutamate ~EC80 60 μM); type: biochemical; conditions: for Emax: read-out: GTPγS-hmGluR2 anGT Emax; for IC50: membranes from CHO cells transfected with human mGlu2 receptor, glutamate ~EC80 (60 μM), pIC50 = −log IC50 (M), read-out: GTPγS-hmGluR2 anGT pIC50 (converted)
T1 construct: expressed in transfected cells; host or cells: CHO cells
T1 sequence (Q14416 19-872): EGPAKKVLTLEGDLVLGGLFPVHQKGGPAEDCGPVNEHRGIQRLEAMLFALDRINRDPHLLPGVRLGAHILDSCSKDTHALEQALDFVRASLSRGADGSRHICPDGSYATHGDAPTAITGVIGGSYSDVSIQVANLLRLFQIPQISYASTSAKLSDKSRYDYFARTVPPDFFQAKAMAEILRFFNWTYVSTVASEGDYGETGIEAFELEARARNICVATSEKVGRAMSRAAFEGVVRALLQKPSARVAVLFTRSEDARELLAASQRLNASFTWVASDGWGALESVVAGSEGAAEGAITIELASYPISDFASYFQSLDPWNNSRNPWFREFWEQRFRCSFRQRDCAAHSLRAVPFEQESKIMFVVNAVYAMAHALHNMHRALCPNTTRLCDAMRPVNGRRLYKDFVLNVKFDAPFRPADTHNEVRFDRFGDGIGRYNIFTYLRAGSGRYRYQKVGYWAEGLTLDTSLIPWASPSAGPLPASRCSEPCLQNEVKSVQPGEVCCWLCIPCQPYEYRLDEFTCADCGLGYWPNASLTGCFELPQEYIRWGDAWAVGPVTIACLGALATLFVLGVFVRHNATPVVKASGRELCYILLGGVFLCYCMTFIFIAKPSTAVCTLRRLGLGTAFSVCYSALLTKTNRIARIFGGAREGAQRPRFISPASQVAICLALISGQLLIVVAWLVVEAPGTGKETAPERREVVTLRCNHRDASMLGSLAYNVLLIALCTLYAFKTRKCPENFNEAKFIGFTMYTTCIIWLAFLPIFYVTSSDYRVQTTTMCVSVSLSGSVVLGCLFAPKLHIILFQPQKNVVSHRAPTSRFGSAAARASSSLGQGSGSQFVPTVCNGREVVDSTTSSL
Description: 1) [^35S]GTPγS Binding Assay
[^35S]GTPγS Binding Assay
Total reaction volume was 200 μl. […] Membrane-bound radioactivity was counted in a Topcount.

[1] = maximal % inhibition relative to the control glutamate response (EC80 glutamate)

Row | SMILES | Emax (human mGlu2 receptor; [1]) [%] | IC50 (human mGlu2 receptor) [M] | melting point [°C] | GTPγS-hmGluR2 anGT Emax (human mGlu2 receptor; [1]) [%] | ED50 (rats) [mg/kg] | ED50 SCOP JNJ-42153605 (rats) [mg/kg]
1 | C[C@H]1CN(c2ccc(C(F)(F)F)cc2)C(=O)c2c(NC(=O)c3cnccn3)cnn21 [Co. No. 35] | 112 | 8.13e-09 | 219.91 |  | 1.26 | 
2 | COc1cc(N2C[C@H](C)n3ncc(NC(=O)c4ccc(N)nc4)c3C2=O)ccc1C(F)(F)F [Co. No. 38] | 109 | 9.12e-09 | 179.66 |  | > 2.5 | 
3 | COc1cnc(C(=O)Nc2cnn3c2C(=O)N(c2ccc(C(F)(F)F)cc2)C[C@@H]3C)cn1 [Co. No. 39] | 111 | 9.33e-09 | 191.33 |  | > 2.5 | 
4 | C[C@H]1CN(c2ccc(C(F)(F)F)cc2)C(=O)c2c(NC(=O)c3cnc(N)cn3)cnn21 [Co. No. 45] | 106 | 1.2e-08 | 287.45 |  | > 2.5 | 
5 | Cc1cncc(C(=O)Nc2cnn3c2C(=O)N(c2ccc(C(F)(F)F)cc2)C[C@@H]3C)c1 [Co. No. 99] | 114 | 3.98e-09 | 165.21 |  | > 2.5 | 
6 | C[C@H]1CN(c2ccc(Cl)c(Cl)c2)C(=O)c2c(NC(=O)c3ccccn3)cnn21 [Co. No. 105] | 109 | 2.63e-09 | 155.04 |  | > 0.63 | 
7 | Cc1cncc(C(=O)Nc2cnn3c2C(=O)N(c2ccc(Cl)c(Cl)c2)C[C@@H]3C)c1 [Co. No. 108] | 109 | 9.77e-10 | 185.71 |  | > 0.63 | 
8 | C[C@H]1CN(c2ccc(Cl)c(Cl)c2)C(=O)c2c(NC(=O)c3cncc(F)c3)cnn21 [Co. No. 109] | 105 | 1.38e-09 | 128.16 |  | > 0.63 | 
9 | COc1cc(N2C[C@H](C)n3ncc(NC(=O)c4ccccn4)c3C2=O)ccc1C(F)(F)F [Co. No. 111] | 105 | 1.02e-08 | 217.95 |  | > 0.63 | 
10 | COc1cc(N2C[C@H](C)n3ncc(NC(=O)c4cnccn4)c3C2=O)ccc1C(F)(F)F [Co. No. 118] | 108 | 4.27e-09 | 191.55 |  | > 0.63 | 
11 | COc1cncc(C(=O)Nc2cnn3c2C(=O)N(c2ccc(C(F)(F)F)cc2)C[C@@H]3C)c1C [Co. No. 122] | 105 | 1.91e-07 | 181.87 |  | > 0.63 | 
12 | C[C@H]1CN(c2ccc(C(F)(F)F)c(F)c2)C(=O)c2c(NC(=O)c3cccnc3)cnn21 [Co. No. 126] |  | 4.17e-09 | 226.14 | 110 |  | >0.63
13 | C[C@H]1CN(c2ccc(C(F)(F)F)c(F)c2)C(=O)c2c(NC(=O)c3cnccn3)cnn21 [Co. No. 127] | 104 | 6.61e-09 | 236.55 |  | > 0.63 | 
14 | C[C@H]1CN(c2ccc(C(F)(F)F)cc2)C(=O)c2c(NC(=O)c3cccc(S(N)(=O)=O)c3)cnn21 [Co. No. 177] | 109 | 1.66e-09 | 280.43 |  | > 0.63 | 
15 | C[C@H]1CN(c2ccc(SC(F)(F)F)cc2)C(=O)c2c(NC(=O)c3cccnc3)cnn21 [Co. No. 179] | 106 | 5.89e-09 | 110.73 |  | > 0.63 | 
16 | Cc1cc(C(=O)Nc2cnn3c2C(=O)N(c2ccc(C(F)(F)F)c(Cl)c2)C[C@@H]3C)nc(N)n1 [Co. No. 181] | 101 | 5.75e-09 | 258.12 |  | > 0.63 | 
17 | COc1cncc(C(=O)Nc2cnn3c2C(=O)N(c2ccc(C(F)(F)F)cc2)C[C@@H]3C)n1 [Co. No. 183] | 114 | 2.24e-09 | 185.23 |  | 0.318 | 
18 | CNc1ncccc1C(=O)Nc1cnn2c1C(=O)N(c1ccc(C(F)(F)F)cc1)C[C@@H]2C [Co. No. 194] | 113 | 1.29e-09 | 161.97 |  | 0.318 | 

Now from value to compound, other results behind:

Row | Emax (human mGlu2 receptor; [1]) [%] | IC50 (human mGlu2 receptor) [M] | melting point [°C] | GTPγS-hmGluR2 anGT Emax (human mGlu2 receptor; [1]) [%] | SMILES | ED50 (rats) [mg/kg] | ED50 SCOP JNJ-42153605 (rats) [mg/kg]
19 | 108 | 2.69e-09 | 155.04 |  | Cc1cc(N2C[C@H](C)n3ncc(NC(=O)c4cncc(F)c4)c3C2=O)ccc1C(F)(F)F [Co. No. 107] | > 0.63 | 
20 | 107 | 2.34e-09 | 217.95 |  | Cc1cc(N2C[C@H](C)n3ncc(NC(=O)c4ccccn4)c3C2=O)ccc1C(F)(F)F [Co. No. 110] | > 0.63 | 
21 | 106 | 4.68e-09 | 128.97 |  | Cc1cc(C(=O)Nc2cnn3c2C(=O)N(c2ccc(C(F)(F)F)c(C)c2)C[C@@H]3C)ccn1 [Co. No. 112] | > 0.63 | 
22 | 106 | 2.51e-09 | 225.49 |  | Cc1cc(N2C[C@H](C)n3ncc(NC(=O)c4cnccn4)c3C2=O)ccc1C(F)(F)F [Co. No. 114] | > 0.63 | 
23 | 107 | 3.39e-09 | 151.53 |  | Cc1cncc(C(=O)Nc2cnn3c2C(=O)N(c2ccc(C(F)(F)F)c(C)c2)C[C@@H]3C)c1 [Co. No. 115] | > 0.63 | 
24 | 104 | 1e-08 | 162.96 |  | COc1cc(N2C[C@H](C)n3ncc(NC(=O)c4cncc(F)c4)c3C2=O)ccc1C(F)(F)F [Co. No. 116] | > 0.63 | 
25 | 104 | 8.51e-09 | 166.32 |  | COc1cc(N2C[C@H](C)n3ncc(NC(=O)c4cncc(C)c4)c3C2=O)ccc1C(F)(F)F [Co. No. 117] | > 0.63 | 
26 | 107 | 8.32e-09 | 200.3 |  | Cc1ccncc1C(=O)Nc1cnn2c1C(=O)N(c1ccc(C(F)(F)F)c(C)c1)C[C@@H]2C [Co. No. 119] | > 0.63 | 
27 | 106 | 2.09e-08 | 160.45 |  | COc1cncc(C(=O)Nc2cnn3c2C(=O)N(c2ccc(C(F)(F)F)c(Cl)c2)C[C@@H]3C)c1C [Co. No. 121] | > 0.63 | 
28 | 107 | 2.63e-08 | 157.12 |  | COc1cc(N2C[C@H](C)n3ncc(NC(=O)c4ccnc(C)c4)c3C2=O)ccc1C(F)(F)F [Co. No. 123] | > 0.63 | 
29 | 109 | 9.55e-09 | 217.01 |  | C[C@H]1CN(c2ccc(C(F)(F)F)c(F)c2)C(=O)c2c(NC(=O)c3cncc(F)c3)cnn21 [Co. No. 124] | > 0.63 | 
30 | 103 | 6.92e-09 | 163.67 |  | Cc1cncc(C(=O)Nc2cnn3c2C(=O)N(c2ccc(C(F)(F)F)c(F)c2)C[C@@H]3C)c1 [Co. No. 128] | > 0.63 | 
31 | 106 | 1.07e-08 | 186.11 |  | COc1cc(N2C[C@H](C)n3ncc(NC(=O)c4cccnc4)c3C2=O)ccc1C(F)(F)F [Co. No. 147] | > 0.63 | 
32 | 107 | 1.66e-09 | 184.46 |  | COc1cncc(C(=O)Nc2cnn3c2C(=O)N(c2ccc(Cl)c(Cl)c2)C[C@@H]3C)c1 [Co. No. 149] | > 0.63 | 
33 | 107 | 1.66e-09 | 133.07 |  | COc1cncc(C(=O)Nc2cnn3c2C(=O)N(c2ccc(C(F)(F)F)c(Cl)c2)C[C@@H]3C)c1 [Co. No. 150] | > 0.63 | 
34 | 106 | 3.16e-09 | 135.98 |  | COc1cncc(C(=O)Nc2cnn3c2C(=O)N(c2ccc(C(F)(F)F)c(C)c2)C[C@@H]3C)c1 [Co. No. 151] | > 0.63 | 
35 | 106 | 9.77e-09 | 115.19 |  | COc1cncc(C(=O)Nc2cnn3c2C(=O)N(c2ccc(C(F)(F)F)c(OC)c2)C[C@@H]3C)c1 [Co. No. 152] | > 0.63 | 
36 | 106 | 1.35e-08 | 143.17 |  | COc1cncc(C(=O)Nc2cnn3c2C(=O)N(c2ccc(C(F)(F)F)c(F)c2)C[C@@H]3C)c1 [Co. No. 153] | > 0.63 | 

Source: patent US10519162B2, “6,7-dihydropyrazolo[1,5-α]pyrazin-4(5H)-one compounds and their use as negative allosteric modulators of mGluR2 receptors” (Janssen Pharmaceutica NV, priority 2014, dated 2019)
